Assay results: ChEMBL document CHEMBL1201862, “PubChem BioAssay data set” (2004)
Activity calls are given as the source filed them.

Key:
[1] = biological target: T1, Endoribonuclease toxin MazF (Escherichia coli K-12, UniProt P0AE70); assay: substrate-only fluorescence increase artefacts – biochemical, single-stranded RNase substrate, counter-screen for MazEF activator project, dose response (AID 588502); format: functional
T1 sequence (P0AE70 whole entry): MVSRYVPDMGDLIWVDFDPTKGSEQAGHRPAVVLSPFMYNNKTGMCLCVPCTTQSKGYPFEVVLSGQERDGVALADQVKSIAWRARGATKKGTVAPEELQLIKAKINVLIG

[2] = biological target: Albumin (Bos taurus, UniProt P02769); assay: Counterscreen for inhibitors of T-cell receptor (TCR)-CD3 interaction: Fluorescence-based biochemical high throughput dose response assay to identify inhibitors of T-cell receptor (TCR)-CD3 interaction using a TAMRA-labeled BSA probe.; format: functional
[3] = biological target: T1, Endoribonuclease toxin MazF; assay: activation of MazEF endoribonuclease cleavage – biochemical, fluorescence, single-stranded RNA substrate, uHTS hits, dose response (AID 588481); format: functional
[4] = biological target: Beta-galactosidase (Escherichia coli, UniProt Q8VNN2); assay: Dose response counterscreen for EBI2 assay utilizing the enzyme, b-galactosidase.; format: functional
[5] = biological target: T2, Small ubiquitin-related modifier 1 (Homo sapiens, UniProt P63165); assay: SUMO1 protein interaction blockers, potency – biochemical, fluorescence polarization, uHTS hits, dose response (AID 624382); format: functional; settings: read-out: IC50_Mean
[6] = biological target: T2, Small ubiquitin-related modifier 1; assay: SUMO1 protein-protein binding blockers, potency – biochemical, FRET, dose response (AID 624383); format: functional; settings: read-out: IC50_Mean
[7] = general mammalian cell viability loss – inhibitor set, cherry-pick, set 2, cytotoxicity control for miR-122 modulator project, dose response (AID 720697); format: functional, cell-based
[8] = biological target: T3, Heat shock factor protein 1 (Mus musculus, UniProt P38532); assay: decrease of HSF1-responsive luciferase luminescence – cell-based, NIH3T3, dose retest, confirmation (AID 2382); format: functional;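 also: NIH3T3 fibroblasts with HSF1-driven luciferase reporter stressed by proteasome inhibitor MG132; luminescence from HSF1-driven luciferase expression after 8 hours of MG132 stress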
T3 sequence (P38532 whole entry): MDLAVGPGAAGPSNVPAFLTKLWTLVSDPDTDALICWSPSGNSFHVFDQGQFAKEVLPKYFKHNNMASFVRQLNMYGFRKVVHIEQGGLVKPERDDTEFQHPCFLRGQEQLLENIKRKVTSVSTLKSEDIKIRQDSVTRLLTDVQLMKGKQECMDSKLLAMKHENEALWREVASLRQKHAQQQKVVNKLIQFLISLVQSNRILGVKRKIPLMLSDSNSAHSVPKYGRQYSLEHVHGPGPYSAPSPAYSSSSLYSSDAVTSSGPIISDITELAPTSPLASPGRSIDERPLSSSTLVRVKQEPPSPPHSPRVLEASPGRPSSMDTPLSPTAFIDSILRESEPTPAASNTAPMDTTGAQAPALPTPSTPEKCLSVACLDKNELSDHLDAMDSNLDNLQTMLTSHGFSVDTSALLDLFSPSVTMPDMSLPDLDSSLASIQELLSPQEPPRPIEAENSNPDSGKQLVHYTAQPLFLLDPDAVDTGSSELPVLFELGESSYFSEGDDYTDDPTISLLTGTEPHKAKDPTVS

[9] = biological target: T4, Methionyl-tRNA synthetase, putative (Trypanosoma brucei brucei, UniProt Q38C91); format: functional, Trypanosoma brucei brucei strain 927/4 GUTat10.1
[10] = biological target: T4, Methionyl-tRNA synthetase, putative; format: functional, Trypanosoma brucei brucei strain 927/4 GUTat10.1; remark: listed apart in the source
[11] = biological target: Fructose-bisphosphate aldolase (Mycobacterium tuberculosis, UniProt P9WQA3); assay: Fluorescence-based biochemical high throughput dose response assay for inhibitors of the fructose-bisphosphate aldolase (FBA) of M. tuberculosis.; format: functional
Fructose-bisphosphate aldolase, sequence (P9WQA3 whole entry): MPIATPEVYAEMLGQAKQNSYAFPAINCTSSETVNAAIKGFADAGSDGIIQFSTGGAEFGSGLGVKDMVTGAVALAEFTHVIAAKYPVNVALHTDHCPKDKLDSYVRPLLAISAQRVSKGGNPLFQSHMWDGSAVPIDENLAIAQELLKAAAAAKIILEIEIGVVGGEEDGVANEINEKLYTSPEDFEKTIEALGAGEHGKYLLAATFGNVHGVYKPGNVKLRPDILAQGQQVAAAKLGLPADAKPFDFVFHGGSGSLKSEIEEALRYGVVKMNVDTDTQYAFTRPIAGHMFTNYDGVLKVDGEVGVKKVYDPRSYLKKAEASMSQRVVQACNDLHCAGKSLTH

T2 sequence (P63165 whole entry): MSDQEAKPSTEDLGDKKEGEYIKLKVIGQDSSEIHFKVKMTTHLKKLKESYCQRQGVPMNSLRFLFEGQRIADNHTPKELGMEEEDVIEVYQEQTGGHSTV
T4 sequence (Q38C91 whole entry): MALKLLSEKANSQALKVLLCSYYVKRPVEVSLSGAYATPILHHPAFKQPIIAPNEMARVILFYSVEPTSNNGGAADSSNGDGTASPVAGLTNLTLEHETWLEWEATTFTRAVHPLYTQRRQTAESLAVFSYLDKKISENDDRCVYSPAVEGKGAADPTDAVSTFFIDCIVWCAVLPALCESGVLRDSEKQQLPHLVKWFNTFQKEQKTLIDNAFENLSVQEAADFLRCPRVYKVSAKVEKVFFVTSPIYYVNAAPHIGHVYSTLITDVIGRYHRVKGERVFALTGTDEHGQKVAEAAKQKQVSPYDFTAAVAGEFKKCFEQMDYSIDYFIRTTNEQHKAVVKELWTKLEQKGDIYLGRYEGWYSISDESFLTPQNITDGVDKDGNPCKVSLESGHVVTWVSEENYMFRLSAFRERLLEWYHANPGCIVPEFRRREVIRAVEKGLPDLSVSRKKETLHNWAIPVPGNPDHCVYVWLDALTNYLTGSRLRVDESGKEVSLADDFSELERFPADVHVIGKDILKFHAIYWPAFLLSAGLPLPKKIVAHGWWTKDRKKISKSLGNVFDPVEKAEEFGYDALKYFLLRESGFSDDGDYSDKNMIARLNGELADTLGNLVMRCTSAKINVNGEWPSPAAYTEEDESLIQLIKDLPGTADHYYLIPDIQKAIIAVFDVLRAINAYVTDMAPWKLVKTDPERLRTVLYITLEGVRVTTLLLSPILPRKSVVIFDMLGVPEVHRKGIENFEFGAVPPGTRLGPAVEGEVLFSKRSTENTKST
Albumin, sequence (P02769 whole entry): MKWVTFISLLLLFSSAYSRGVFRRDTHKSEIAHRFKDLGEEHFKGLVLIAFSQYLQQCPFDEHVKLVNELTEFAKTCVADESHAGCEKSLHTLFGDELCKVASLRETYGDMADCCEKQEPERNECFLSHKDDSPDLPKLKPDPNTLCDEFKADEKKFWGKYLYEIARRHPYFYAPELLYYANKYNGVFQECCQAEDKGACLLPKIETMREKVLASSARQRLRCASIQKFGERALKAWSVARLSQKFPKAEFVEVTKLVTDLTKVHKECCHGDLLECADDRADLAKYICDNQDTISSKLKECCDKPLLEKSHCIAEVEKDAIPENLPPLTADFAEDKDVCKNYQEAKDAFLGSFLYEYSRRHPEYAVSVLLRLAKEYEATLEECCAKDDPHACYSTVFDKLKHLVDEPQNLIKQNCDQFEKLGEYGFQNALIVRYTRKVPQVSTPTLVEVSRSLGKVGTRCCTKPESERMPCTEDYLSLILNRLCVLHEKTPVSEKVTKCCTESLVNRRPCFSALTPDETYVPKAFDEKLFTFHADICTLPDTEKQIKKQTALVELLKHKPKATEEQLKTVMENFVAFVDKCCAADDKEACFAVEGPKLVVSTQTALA
Beta-galactosidase, sequence (Q8VNN2 whole entry): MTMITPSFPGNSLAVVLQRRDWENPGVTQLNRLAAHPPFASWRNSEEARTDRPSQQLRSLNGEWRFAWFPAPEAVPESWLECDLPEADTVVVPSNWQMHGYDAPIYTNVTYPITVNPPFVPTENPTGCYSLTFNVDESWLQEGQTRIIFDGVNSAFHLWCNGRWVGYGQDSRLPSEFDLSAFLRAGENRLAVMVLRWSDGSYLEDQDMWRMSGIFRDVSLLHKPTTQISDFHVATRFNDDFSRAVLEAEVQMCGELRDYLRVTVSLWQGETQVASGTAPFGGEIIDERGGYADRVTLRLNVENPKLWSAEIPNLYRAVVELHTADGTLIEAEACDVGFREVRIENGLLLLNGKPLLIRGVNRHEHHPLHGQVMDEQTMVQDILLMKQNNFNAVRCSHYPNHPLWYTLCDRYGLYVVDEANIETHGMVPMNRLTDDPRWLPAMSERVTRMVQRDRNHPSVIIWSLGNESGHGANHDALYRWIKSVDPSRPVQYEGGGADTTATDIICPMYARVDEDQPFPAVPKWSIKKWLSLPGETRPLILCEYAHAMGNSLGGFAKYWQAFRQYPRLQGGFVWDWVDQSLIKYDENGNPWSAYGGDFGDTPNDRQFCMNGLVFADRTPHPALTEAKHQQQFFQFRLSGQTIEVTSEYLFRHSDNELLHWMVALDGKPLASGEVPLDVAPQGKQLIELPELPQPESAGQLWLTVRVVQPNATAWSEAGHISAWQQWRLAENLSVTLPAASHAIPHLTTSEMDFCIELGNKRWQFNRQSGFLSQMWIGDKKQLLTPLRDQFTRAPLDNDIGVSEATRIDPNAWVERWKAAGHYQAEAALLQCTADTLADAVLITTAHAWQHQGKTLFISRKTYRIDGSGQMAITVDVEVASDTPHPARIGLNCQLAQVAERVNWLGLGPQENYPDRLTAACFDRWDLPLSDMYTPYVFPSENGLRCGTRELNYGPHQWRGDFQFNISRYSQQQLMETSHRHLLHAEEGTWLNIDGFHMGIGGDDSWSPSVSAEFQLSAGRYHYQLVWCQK

Which EC50 [1] does the source give for COC(=O)CC1(C(=O)OC)Nc2cc(Cl)c(Cl)cc2S(=O)(=O)N1O (stereo unspecified) here?
The EC50 was > 99 µM (inactive).

And the IC50 [2]?
Its IC50 is > 94.2 µM (inactive).

And the EC50 [3]?
Its EC50 is 1.14 µM (active).

With CCOC(=O)C1CCN(C(=O)c2cc3c(s2)-c2ccccc2OC3)CC1 as the compound, how does the IC50 [4] read?
The IC50 was > 80 µM (inactive).

Which IC50 [5] does the source give for CCCC(C)C(=O)Nc1nc(C)c(-c2csc(Nc3cc(Cl)ccc3C)n2)s1 (stereo unspecified) here?
Its IC50 is > 66.6 µM (inactive).

And the IC50 [6]?
Its IC50 is 10.2 µM (active).

For CCN(CC)CCOc1cccc(C(C)C)c1, which AC50 [7] is on record?
Its AC50 is 6.91 µM (active).

With COc1ccc(NC(=S)N2CCC(c3nc4ccc(Cl)cc4[nH]3)CC2)c(OC)c1 as the compound, how does the EC50 [8] read?
Its EC50 is > 195 µM (not active).

And the IC50 [9]?
Its IC50 is 53.5 µM (inactive).

And the IC50 [10]?
Its IC50 is 26.1 µM (inactive).

For CN1CCN(C(=O)COc2ccc(-c3nc4ccccc4s3)cc2)CC1, which IC50 [11] is on record?
The IC50 was 3.57 µM (active).
